Measurements: PMC5509550, “Development of a Novel Lead that Targets M. tuberculosis Polyketide Synthase 13” (Cell, 2017)
≈ marks a conversion by molar mass, not a printed value.

Key:
[1] = tested on: TAM16-resistant Mtb mutants (Pks13 D1644G or D1644Y); assay type: cell-based, Mycobacterium tuberculosis
Mtb mc^27000 = assay type: cell-based, Mycobacterium tuberculosis

SMILES | MIC against TAM16-resistant mutants [1] [µM] | frequency of resistance observed for INH (Mtb mc^27000)
NNC(=O)c1ccncc1 [INH, Isoniazid] | 0.2 (≈ 0.0274 µg/mL) | 1 × 10^−6
CO[C@H]1/C=C/O[C@@]2(C)Oc3c(C)c(O)c4c(O)c(c(/C=N/N5CCN(C)CC5)c(O)c4c3C2=O)NC(=O)/C(C)=C\C=C\[C@H](C)[C@H](O)[C@@H](C)[C@@H](O)[C@@H](C)[C@H](OC(C)=O)[C@@H]1C [RIF, Rifampicin] | 0.04 (≈ 0.0329 µg/mL) | –
